Results: US6727231B1, “Uridine therapy for patients with elevated purine levels” (Repligen Corporation, priority 2000, dated 2004)
“Also recorded” adds a separate entry of the source.

How the values were obtained:
[1] = system: Patient having increased uric acid in urine and diagnosed with symptoms of PDD; experiment: Treatment of Patient 1, who had increased uric acid in urine and was diagnosed with symptoms of PDD; type: in vivo, human
Experimental: Patient 1 was diagnosed with PDD. […], the patient's urine was analyzed, and the urine level of uric acid was 18.1 mg/kg/day. The normal level of uric acid in normal patients at age nine is 8.3+/−2.0 mg/kg/day. The uric acid level in the urine gradually declined to approximately normal levels, however the symptoms of PDD remained.
[…], Patient 1 was treated with a variety of drugs and exercise- and stress-reducing regimens. […] The exercise- and stress-reducing regimen helped in some respects, because Patient 1 was often fatigued. In addition, the low purine diet was continued at times along with vitamin B6 and magnesium. Over these many years, Patient 1 had varying levels of rather minor improvements in their symptoms in response to these and other attempted therapies.
Patient 1 began use of uridine, with an oral dosage of approximately 50 mg/kilogram of body weight per day. […] In particular, Patient 1 tried varying dosages of uridine up to 1000 mg/kg/day.

[2] = system: hyperuricosuric patients; details: some of these patients; cited from earlier work
[3] = cited from earlier work
[4] = system: hypouricosuric PDD patients; details: single oral doses of 1,000 mg/kg/day; cited from earlier work
[5] = cited from earlier work; remark: listed apart in the source
[6] = Patient 1, oral uridine, comparative narrative data against no uridine

In the case of `C[C@H](N)Cc1ccccc1.C[C@H](N)Cc1ccccc1.O=S(=O)(O)O` [Dexedrine®, reference compound], the “Effect of earlier drug treatment on the patient's condition” value (from here on “Effect of earlier drug treatment”) ([1]; Patient) was “little success or worsening of their condition”.

In the case of `O=C(CCCN1CCC(O)(c2ccc(Cl)cc2)CC1)c1ccc(F)cc1` [Haldol®, reference compound], the “Effect of earlier drug treatment” value ([1]; Patient 1, donor alpha) was “little success or worsening of their condition”.

In the case of `COC(=O)C(c1ccccc1)C1CCCCN1.Cl` (stereo not drawn) [Ritalin®, reference compound], the “Effect of earlier drug treatment” value ([1]; Patient) was “little success or worsening of their condition”.

In the case of `Oc1ncnc2[nH]ncc12` [allopurinol], the “Benefit in patients with hyperuricosuria” value [2] is listed as “benefited”.

In the case of `O=c1ccn([C@@H]2O[C@H](CO)[C@@H](O)[C@H]2O)c(=O)[nH]1` [uridine], the “Normal plasma concentration of uridine” value [3] is listed as 2 to 10 µM, the “Effect on symptoms in hypouricosuric PDD patients” value [4] is listed as “reduce the symptoms” and the “Improvements upon cessation of uridine therapy” value ([1]; Patient 1) is listed as “declined or regressed”. The “Neurological and neuromuscular symptoms (autistic disorder and ataxia) upon administration” value ([1]; Patient 1) was “improved dramatically”, the “Fine motor skills with uridine” value [1, 6] was “a. Able to use a screwdriver” and the “Gross motor skills with uridine” value [1, 6] was “d. Hugs normally-finds it easier; also recorded: e. Much less exhaustion and pain; also recorded: b. Does not crash into furniture,”. For the same molecule, the “Speech and language with uridine” value [1, 6] was “b. Very quick to understand jokes,; also recorded: e. Usually makes eye contact”, the “Benefit at this dosage of uridine” value ([1]; Patient 1, oral, 150 mg/kg/day) was “rapid benefits” and the “Dosage dependence of improvements” value ([1]; Patient 1, varying dosages up to 1000 mg/kg/day) was “The higher dosages gave the most improved results”. The “Adverse effect at higher dosages” value ([5]; dosages higher than 1000 mg/kg/day, some patients) was “mild diarrhea” and the Toxic effects ([5]; dosages of up to 1000 mg/kg/day, pure uridine) was “no known toxic effects”.
